Laboratory results reported in patent EP0614465B1, “HYBRID PROTEIN BETWEEN CS FROM […] HBsAG” (SMITHKLINE BEECHAM BIOLOGICALS S.A., priority 1991, dated 1993).

System: R32tet32 antigen
Test: immunogenicity in mice: anti-R32tet32 (anti-repeat) antibody titer by ELISA
Assay type: in vivo, Balb/C mice
Conditions: effect of 3D-MPL (50 µg/dose) added to (RTS,S) on A1(OH)3

With “3 Deacylated monophosphoryl lipid A [3D-MPL]” the “primary antibody response in mice” value was “enhanced”.
